In patent US20230058623A1, “NOVEL HETEROARYL-TRIAZOLE COMPOUNDS AS PESTICIDES” (Bayer Aktiengesellschaft, priority 2019, published 2023) one finds pest or weed control and mortality data, which are given here for 7 compounds.

Holding throughout (type): in vivo
Assay [1] concerns Rhipicephalus (Boophilus) microplus larvae (strain Parkhurst, resistant against synthetic pyrethroids). The experiment in a line: Rhipicephalus (Boophilus) microplus in-vitro contact test, larval cattle tick. The following applies: after 48 hours, read-out: activity (efficacy: larvae dead or moribund); for pest or weed control at 1 µg/cm2, 100 g/ha: application rate 1 μg/cm^2 (=100 g/ha); for pest or weed control at 5 µg/cm2, 500 g/ha: application rate 5 μg/cm^2 (=500 g/ha). In outline:
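Pyrethroid-resistant Parkhurst larvae, 20–50 per tube, were kept 48 h at 27 °C and 85% relative humidity in glass tubes whose inner walls carried a dried acetone film of compound (900 ppm giving 5 μg/cm^2). Dead or moribund larvae, judged by loss of negative geotactic behavior, set percent efficacy.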

The subject of assay [2] is adult mosquitoes Aedes aegypti strain MONHEIM. The experiment in a line: Aedes aegypti test (AEDSAE surface treatment & contact assay). To be noted: 24 hours after contact, read-out: efficacy (mortality); for mortality at 4 mg/m2: surface concentration 4 mg/m^2, exposure 30 minutes; for mortality at 20 mg/m2: surface concentration 20 mg/m^2, exposure 30 minutes. In short, it runs like this: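 Compound in acetone (2 mg/ml) with 2000 ppm RME dried onto glazed tile; adults exposed to the treated surface for 30 min. Percent mortality scored 24 h after contact.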

The test system of assay [3] is larvae of the banded cucumber beetle (Diabrotica balteata). The experiment in a line: Diabrotica balteata spray test. The following applies: 168 h, application rate 100 g/ha (=32 μg/well), after 7 days, wheat seeds, read-out: activity (efficacy: seedlings grown). In short, it runs like this: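 Efficacy (%) read 7 days after infesting treated seedlings with 10-20 banded cucumber beetle larvae, 100% meaning growth as in uninfected untreated control and 0% no growth. Test solutions in water containing 1000 ppm emulsifier were sprayed onto wheat seeds germinated for 1 day on agar.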

Assay [4] concerns green peach aphid (Myzus persicae). Put plainly: Myzus persicae spray test. The following applies: foliar, 120 h, application rate 100 g/ha, after 5 days, Chinese cabbage leaf disks, read-out: activity (mortality). In outline:
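Percent kill was recorded 5 days after spraying. Test solutions, prepared with solvent and diluted in 1000 ppm emulsifier water, were applied to Brassica pekinensis leaf disks carrying mixed-instar green peach aphids.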

The test system of assay [5] is adult unfed cat fleas (Ctenocephalides felis). The experiment in a line: Ctenocephalides felis oral test. The following applies: 48 h, read-out: activity (mortality). In outline: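 About 20 adult unfed cat fleas fed through parafilm on citrated cattle blood containing compound (from a DMSO concentrate). Blood held at 37° C, fleas at room temperature. Mortality in % scored after 2 days.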

For assay [6], the system named is adult flies Musca domestica strain WHO-N. Put plainly: Musca domestica test (MUSCDO surface treatment & contact assay). The following applies: 24 hours after contact, read-out: efficacy (mortality); for mortality at 4 mg/m2: surface concentration 4 mg/m^2, exposure 30 minutes; for mortality at 20 mg/m2: surface concentration 20 mg/m^2, exposure 30 minutes. In outline: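 Compound dissolved at 2 mg/ml in acetone with 2000 ppm RME, applied to glazed tile and dried; adult flies exposed on the surface for 30 min. Percent mortality scored 24 h after contact.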

The subject of assay [7] is larvae of the southern green stink bug (Nezara viridula). Put plainly: Nezara viridula spray test. To be noted: 96 h, application rate 100 g/ha, after 4 days, barley plants. In outline:
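Barley plants sprayed with the active compound in emulsifier-containing water, then infested with stink bug larvae. Mortality scored in % after 4 days, with 100% meaning all insects killed.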

Assay [8] relates to adult brown dog ticks (Rhipicephalus sanguineus). The experiment in a line: Rhipicephalus sanguineus in-vitro contact test, adult brown dog ticks. The following applies: application rate 5 μg/cm^2 (=500 g/ha), after 48 hours, read-out: activity (efficacy: ticks dead or moribund). In short, it runs like this:
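Glass tubes are coated with compound dissolved in acetone, a 900 ppm solution yielding 5 μg/cm^2 on the inner surface. Adult ticks (5-10 per tube) are kept on the dry film at room temperature for 48 h, then those unable to escape 45-50° C heat are counted as dead or moribund.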

What is called mortality is the percentage killed. With `C[C@H](NC(=O)c1cc(C(F)(F)F)cc(C(F)(F)F)c1)c1ncnn1-c1ccc(C(=O)N2C[C@H](C)O[C@@H](C)C2)cn1` [Example I-94], in assay [1], the pest or weed control at 1 µg/cm2, 100 g/ha worked out at 100%. Also, the pest or weed control at 5 µg/cm2, 500 g/ha in assay [1] and in assay [8] was 100% throughout. The mortality at 4 mg/m2 in assay [2] and in assay [6] was 80 to 100% each time. Moreover, the mortality at 20 mg/m2 in assay [2] and in assay [6] was 80 to 100% in each case. The pest or weed control at 32 µg/disc, 100 g/ha in assay [3] came to 100%. In addition, the mortality at 100 g/ha in assay [4] and in assay [7] was 100% each time. For the same compound, in assay [5], the mortality at 100 ppm amounted to 100%.
Consider `C[C@H](NC(=O)c1cc(Cl)cc(C(F)(F)F)c1)c1ncnn1-c1ccc(C(=O)N2CCSCC2)cn1` [Example I-36], for which the pest or weed control at 1 µg/cm2, 100 g/ha in assay [1] amounted to 100%. Besides, the pest or weed control at 5 µg/cm2, 500 g/ha in assay [1] and in assay [8] was 100% in each case. Besides, the mortality at 4 mg/m2 in assay [2] and in assay [6] was 80 to 100% in each case. For the same compound, the mortality at 20 mg/m2 in assay [2] and in assay [6] was 80 to 100% throughout. Also, the pest or weed control at 32 µg/disc, 100 g/ha in assay [3] came to 80%. In addition, the mortality at 100 g/ha in assay [4] and in assay [7] was 100% each time. In addition, the mortality at 100 ppm in assay [5] is 100%.
Turning to `C[C@@H]1CN(C(=O)c2ccc(-n3ncnc3[C@H](C)NC(=O)c3cc(C(F)(F)F)cc(C(F)(F)F)c3)nc2)C[C@H](C)O1` [Example I-50], the pest or weed control at 1 µg/cm2, 100 g/ha in assay [1] is 100%. Also, the pest or weed control at 5 µg/cm2, 500 g/ha in assay [1] and in assay [8] was 100% throughout. For the same compound, the mortality at 4 mg/m2 in assay [2] and in assay [6] was 80 to 100% throughout. Also, the mortality at 20 mg/m2 in assay [2] and in assay [6] was 80 to 100% in each case. Further, the pest or weed control at 32 µg/disc, 100 g/ha in assay [3] turned out to be 100%. Also, the mortality at 100 g/ha in assay [4] is 90%; in assay [7], 100%. Moreover, in assay [5], the mortality at 100 ppm amounted to 100%.
With `C[C@@H]1CN(C(=O)c2ccc(-n3ncnc3[C@H](C)NC(=O)c3cc(Cl)cc(C(F)(F)F)c3)nc2)C[C@H](C)O1` [Example I-31], in assay [1], the pest or weed control at 1 µg/cm2, 100 g/ha amounted to 100%. Further, the pest or weed control at 5 µg/cm2, 500 g/ha in assay [1] and in assay [8] was 100% throughout. In assay [2], the mortality at 4 mg/m2 lay in the range of 80 to 100%. Besides, the mortality at 20 mg/m2 in assay [2] and in assay [6] was 80 to 100% throughout. Further, the pest or weed control at 32 µg/disc, 100 g/ha in assay [3] was 100%. Moreover, the mortality at 100 g/ha in assay [4] is 100%; in assay [7], 90%. For the same compound, the mortality at 100 ppm in assay [5] came to 100%.
Take `Cc1nc([C@H](C)NC(=O)c2cc(C(F)(F)F)cc(C(F)(F)F)c2)n(-c2ccc(C(=O)N3C[C@@H](C)O[C@@H](C)C3)cn2)n1` [Example I-45]: the pest or weed control at 1 µg/cm2, 100 g/ha in assay [1] amounted to 100%. The pest or weed control at 5 µg/cm2, 500 g/ha in assay [1] and in assay [8] was 100% each time. Also, the mortality at 20 mg/m2 in assay [2] and in assay [6] was 80 to 100% each time. Besides, the pest or weed control at 32 µg/disc, 100 g/ha in assay [3] turned out to be 100%. For the same compound, the mortality at 100 g/ha in assay [4] and in assay [7] was 100% throughout. Moreover, the mortality at 100 ppm in assay [5] is 100%. In assay [6], the mortality at 4 mg/m2 fell in the range of 80 to 100%.
On to `C[C@@H]1CN(C(=O)c2ccc(-n3ncnc3[C@H](C)NC(=O)c3cc(C(F)(F)F)cc(C(F)(F)F)c3)nc2)C[C@@H](C)O1` [Example I-46], for which, in assay [1], the pest or weed control at 1 µg/cm2, 100 g/ha worked out at 100%. For the same compound, the pest or weed control at 5 µg/cm2, 500 g/ha in assay [1] and in assay [8] was 100% each time. The mortality at 20 mg/m2 in assay [2] and in assay [6] was 80 to 100% each time. Further, the pest or weed control at 32 µg/disc, 100 g/ha in assay [3] was 100%. Besides, the mortality at 100 g/ha in assay [4] is 90%; in assay [7], 100%. Further, the mortality at 100 ppm in assay [5] came to 100%.
As to `Cc1nc([C@H](C)NC(=O)c2cc(Cl)cc(C(F)(F)F)c2)n(-c2ccc(C(=O)N3CC(C)OC(C)C3)cn2)n1` (stereo partly drawn) [Example I-29], the pest or weed control at 1 µg/cm2, 100 g/ha in assay [1] was 100%. Besides, the pest or weed control at 5 µg/cm2, 500 g/ha in assay [1] and in assay [8] was 100% each time. The mortality at 4 mg/m2 in assay [2] was 80 to 100%. Further, the mortality at 20 mg/m2 in assay [2] and in assay [6] was 80 to 100% in each case. Also, the pest or weed control at 32 µg/disc, 100 g/ha in assay [3] stood at 100%. In addition, the mortality at 100 g/ha in assay [4] and in assay [7] was 90% each time. In addition, in assay [5], the mortality at 100 ppm is 100%.
